“And” between values parts separate entries of the source, which are not always exact repeats. Equal values may be shown once. The source made the active and inactive calls.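 How the source made its calls: active means compounds giving half or more protection of infected cells from virus-caused growth loss, again on retest; inactive means the rest.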
Tested on: CEM cells HIV-1 protection, formazan growth assay
Test: NCI AIDS Antiviral Assay
Settings: for IC50: measured here: growth of uninfected CEM cells
How it was run: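 Category rules: moderately active means at least 50% protection on retest, and confirmed active means 100% protection reproducibly. The underlying data came from a formazan growth assay in HIV-1-infected CEM cells.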

| SMILES | outcome | EC50 | IC50 |
| --- | --- | --- | --- |
| CC1CC/C(=C\c2ccc(F)cc2)C2=C1C(c1ccc(F)cc1)n1c(s/c(=C/c3cccc(Br)c3)c1=O)=N2 (stereo unspecified) | inactive | – | – |
| C=CC[C@H]1O[Si](C(C)(C)C)(C(C)(C)C)[C@H](C)[C@H]1C | – | > 200 µM | > 200 µM |
| C=C(C(=C)P(=S)(c1ccccc1)c1ccccc1)P(=S)(c1ccccc1)c1ccccc1 | – | > 26.9 µM | > 26.9 µM |
| CCOC(CNCCC(=O)OC)OCC | inactive | – | – |
| Nc1nc(Cl)c(N)c(NCC2(CO)CCC(OCc3ccccc3)C2)n1 (stereo unspecified) | – | > 200 µM | 26.9 µM |
| Cc1cc(=O)c(C#N)c(C)s1 | – | > 200 µM | > 200 µM |
| CCc1n[nH]c(=O)n1CCCCCCCCn1c(CC)n[nH]c1=O | – | > 200 µM | > 200 µM |
| Cc1ccc(N=Nc2c(N)nn3cc4c(nc23)-c2ccccc2C4)cc1 | – | > 200 µM | 2.95 µM |
| c1ccc(N2CCN(CCN3CCc4c([nH]c5ccccc45)C3c3cccnc3)CC2)cc1 (stereo unspecified) | – | > 2.4 µM | > 2.4 µM |
| COC1(OC)N=C(N)C2(C#N)C3(C(=O)N(C(C)C)N=C3C)C12C#N (stereo unspecified) | – | > 200 µM | > 200 µM |
| Cc1cc(-c2ccc(N=Nc3c(N)c(S(=O)(=O)O)cc4cc(S(=O)(=O)O)ccc34)c(C)c2)ccc1N=Nc1c(N)ccc2cc(S(=O)(=O)O)ccc12 | active | – | – |
| COC1C=COC2(C)Oc3c(C)c(O)c4c(O)c(c(C5SCCS5)c(O)c4c3C2=O)NC(=O)/C(C)=C\C=CC(C)C(O)C(C)C(O)C(C)C(OC(C)=O)C1C (stereo unspecified) | – | > 200 µM | 0.646 µM |
| O=C(O)CC/C(=N\Nc1nsc2ccccc12)c1ccccc1 | – | > 11.5 µM | 8.13 µM |
| COC(=O)C1=C(C(=O)OC)C2(c3ccccc3)c3ccccc3C(=O)C1N2C1CCCCC1 (stereo unspecified) | – | > 200 µM | 16.6 µM |
| Cc1ccc(N=Nc2c(-c3ccccc3)nn(C(=O)CC(=O)Nc3ccc(Cl)cc3)c2-c2ccccc2)cc1 | – | > 9.77 µM | > 9.77 µM |
| COc1cc(/C=C2/C(=O)N(C(=O)c3ccc(Cl)cc3)N=C2C)cc(OC)c1OC | – | > 17.4 µM | > 17.4 µM |
| Cn1ccnc1Sc1c([N+](=O)[O-])ncn1C | – | > 1050 µM | 7.94 µM |
| CN(C)CCCN1CCC2(CCCCC2)CC1 | inactive | – | – |
| O=c1cnn(C2OC(C(O)CO)C(O)C2O)c(=O)[nH]1 (stereo unspecified) | inactive | – | – |
| O=C1c2ccccc2C(=O)N1CCN(CCN1C(=O)c2ccccc2C1=O)Cn1cccn1 | inactive | – | – |
| O=c1c(Cl)c(Cl)cnn1-c1ccccc1 | – | > 126 µM | 0.288 µM and 2.63 µM |

| SMILES | outcome | EC50 | IC50 |
| --- | --- | --- | --- |
| C=CCc1cccc(/C=N\N=C(/N)NO)c1O | inactive | – | – |
| O=C(O)CN1C(=O)CSC1=S | – | > 1290 µM | 794 µM |
| CSC1=Nc2ccccc2N=C(c2ccccc2)C1 | – | > 26.9 µM | > 26.9 µM |
| C=C(C)[C@@H]1CC[C@@H](C)[C@](O)([C@@H]2C[C@@H]([C@H](COC(=O)c3ccccc3)OC(=O)c3ccccc3)OC2=O)C1 | – | > 100 µM | > 100 µM |
| O=C1N(Cc2ccccc2)CC(O)CN1Cc1ccccc1 | – | > 200 µM | 174 µM |
| CC(C)CC[CH2][Pb]([CH2]CCC(C)C)([CH2]CCC(C)C)[O]C(=O)C(Cl)(Cl)Cl | – | > 200 µM | 3.09 µM |
| CCCCCCCCCCCC[N+](CCCCCCCCCCCC)=C1SCCS1 | inactive | – | – |
| N#CC(/C=C/c1ccccc1)Nc1ccccc1CO (stereo unspecified) | – | > 27.5 µM | > 27.5 µM |
| COC(=O)c1c2cccccc-2c(Cc2c3cccccc-3c(C(=O)OC)c2O)c1O | – | > 200 µM | > 200 µM |
| NC(CSS(=O)(=O)O)=NCCCOCc1ccccc1 | – | > 200 µM | 112 µM |
| CCCCCCCCCCCCC(=O)NC1=C(O)c2ccccc2C(=O)C1=O | inactive | – | – |
| COc1cc(C[N+]23CC[N+](Cc4cc(OC)cc(OC)c4)(CC2)C3)cc(OC)c1 | – | > 525 µM | 214 µM |
| NC(Cc1ccc(S(=O)(=O)O)cc1)C(=O)NC(Cc1ccc(S(=O)(=O)O)cc1)C(=O)NC(Cc1ccc(S(=O)(=O)O)cc1)C(=O)NC(Cc1ccc(S(=O)(=O)O)cc1)C(=O)O (stereo unspecified) | – | > 200 µM | > 200 µM |
| COC(=O)/C=C\C(C#N)(C#N)N=Cc1ccc(Br)cc1 | – | > 20 µM | 1.02 µM |
| O=C(CC(C(=O)c1ccsc1)c1ccc2c(c1)OCO2)c1ccccc1 (stereo unspecified) | – | > 200 µM | > 200 µM |
| [N-]=[N+]=NC(=O)c1ccc(S(=O)(=O)c2ccc(F)cc2)cc1 | inactive | – | – |
| COC(=O)c1ccc(NCC2=CC(=O)c3ccccc3C2=O)cc1 | – | > 200 µM | 2.09 µM |
| OC1(CN2CCCCC2)N=C(c2ccccc2)c2ccsc2-n2cccc21 (stereo unspecified) | – | > 200 µM | 117 µM |
| CC1(O)CSc2c(C=O)c3ccccc3n21 (stereo unspecified) | – | > 1070 µM | 67.6 µM |
| CCOC(=O)Nc1ccc(/C=C\c2ccnc3ccccc23)cc1 | – | > 16.2 µM | 10 µM |
| CC1(n2nc(-c3ccccc3)n(-c3ccccc3)c2=O)CSC1 | – | > 41.7 µM | > 41.7 µM |

| SMILES | outcome | EC50 | IC50 |
| --- | --- | --- | --- |
| CC(=O)C1C(=O)C(=O)N(c2ccc(Cl)cc2C)C1=O (stereo unspecified) | – | > 93.3 µM | > 93.3 µM |
| CN(C)CCSc1ccc(-c2ccc(-c3ccc(SCCN(C)C)cc3)nn2)cc1 | – | 6.92 µM | 8.13 µM |
| O=c1/c(=C\c2ccccc2Cl)sc2n1CCN=2 | inactive | – | – |
| CCOC(=O)C(=CNc1ccc(F)c(F)c1)C(=O)OCC | – | > 200 µM | 79.4 µM |
| COc1ccc(Nc2nc3ccccc3nc2-c2cccs2)cc1 | – | > 15.5 µM | > 15.5 µM |
| COc1cc(/C=C2/SC(c3ccccc3)N(c3ccc(NC(C)=O)cc3)C2=O)cc(OC)c1OC (stereo unspecified) | – | > 200 µM | 117 µM |
| CC[C@@H](C)[C@H](NC(=O)[C@H](CCCCN)NC(=O)[C@H](CCCCN)NC(=O)[C@H](CC(C)C)NC(=O)[C@@H]1CCCN1C(=O)[C@@H]1CCCN1C(=O)[C@@H](NC(=O)[C@H](CC(C)C)NC(=O)[C@H](CCCCN)NC(=O)[C@H](CCCN=C(N)N)NC(=O)[C@@H](N)C(C)C)[C@@H](C)O)C(=O)O | inactive | – | – |
| O=[N+]([O-])c1ncn(C2OC(CO)C(O)C2O)c1S (stereo unspecified) | – | > 200 µM | > 200 µM |
| O=C1CN(S(=O)(=O)c2ccc([N+](=O)[O-])cc2)CC(=O)CN(S(=O)(=O)c2ccc([N+](=O)[O-])cc2)C1 | – | > 200 µM | > 200 µM |
| CCOC(=O)c1cn(C)c2c1C(O)=C(C(=O)OC)CC(=O)N2 | – | > 234 µM | 178 µM |
| COc1c(-c2ccccc2)oc2c(ccc3occc32)c1=O | – | > 95.5 µM | > 95.5 µM |
| CCCCCCCC(=O)NCC(O)CNC(=O)CCCCCCC | inactive | – | – |
| COc1cccc(/C=C/C(=O)c2ccccc2)c1 | – | > 57.5 µM | 11 µM |
| C=CCOCn1cc(C)c(=O)[nH]c1=O | – | > 200 µM | > 200 µM |
| O=c1c2ccccc2c(=O)n2n1C1CCC2C1 | – | > 1100 µM | > 1100 µM |
| C1CSCCCSCCSCCCSC1 | – | > 18.2 µM | > 18.2 µM |
| c1ccc(-c2cn3nc4ccccc4c3nn2)cc1 | – | > 200 µM | > 200 µM |
| O=C1CCC(=O)N1N1C(=O)CCC1=O | – | > 200 µM | > 200 µM |
| O=C1CCC2(c3ccc(Cl)cc3)SCCN12 (stereo unspecified) | – | > 200 µM | 145 µM |
| COc1cc(CO)c(CC(=O)NCCCc2ccccc2)cc1OC | – | > 200 µM | 18.2 µM |

Reference: PubChem BioAssay AID179 (DTP/NCI, 2004)
